Structures can show the parent of a compound that is named as a salt.
Biological target: human SPR (Homo sapiens (Human), UniProt P35270)
Test: Evaluation Example 2: Measurement of human SPR inhibitory activity (seven concentrations, sepiapterin absorbance at 420 nm)
Format: biochemical
Settings: Evaluation Example 2, seven concentrations 0.14 nM to 100 nM, 240 minutes at room temperature, read-out: IC50
Method in brief: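 Reactions ran 240 min at room temperature in 100 mM Tris-HCl pH 7.5 with 0.01% BSA. They contained tag-cleaved, E. coli-expressed full-length human SPR (diluted to 150 ng/mL), seven compound concentrations from 0.14 to 100 nM, and sepiapterin/NADPH added as a 120 μM/160 μM solution. Inhibition was calculated from sepiapterin absorbance at 420 nm.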

Chain of human SPR (P35270 whole entry): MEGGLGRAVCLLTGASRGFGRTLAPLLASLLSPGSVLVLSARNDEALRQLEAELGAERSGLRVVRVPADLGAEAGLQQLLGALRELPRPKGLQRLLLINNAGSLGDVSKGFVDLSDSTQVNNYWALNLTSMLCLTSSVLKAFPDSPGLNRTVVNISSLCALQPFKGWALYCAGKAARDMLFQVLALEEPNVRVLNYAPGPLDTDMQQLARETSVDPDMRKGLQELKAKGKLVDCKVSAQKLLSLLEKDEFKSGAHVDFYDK

SMILES | IC50 [nM]
CC(C)(C)Cn1c(=O)c(C(=O)NC2CC2)c(O)n2nc3c(c12)CN(C1CC(F)(F)C1)C(=O)N3 [Synthesis Example 410, N-Cyclopropyl-3-(3,3-difluorocyclobutyl)-8-hydroxy-5-neopentyl-2,6-dioxo-1,2,3,4,5,6-hexahydropyrazolo[1,5-a:3,4-d′]dipyrimidine-7-carboxamide] | 1.5
Cc1nn2c(O)c(C(=O)NC3CC3)c(=O)n(CC(C)C)c2c1/C=C/C(=O)N1C[C@H](C)OC[C@H]1C [Synthesis Example 646, N-Cyclopropyl-3-((E)-3-((2S,5R)-2,5-dimethylmorpholino)-3-oxoprop-1-en-1-yl)-7-hydroxy-4-isobutyl-2-methyl-5-oxo-4,5-dihydropyrazolo[1,5-a]pyrimidine-6-carboxamide] | 0.87
Cc1nn2c(O)c(C(=O)NC3CC3)c(=O)n(CC(C)C)c2c1/C=C/C(=O)N1C[C@@H](F)[C@H](F)C1 (racemic) [Synthesis Example 649, N-Cyclopropyl-3-((E)-3-(trans-3,4-difluoropyrrolidin-1-yl)-3-oxoprop-1-en-1-yl)-7-hydroxy-4-isobutyl-2-methyl-5-oxo-4,5-dihydropyrazolo[1,5-a]pyrimidine-6-carboxamide] | 0.73
CC(C)Cn1c(=O)c(C(=O)NC2CC2)c(O)n2ncc(/C=C/C(=O)N3CCOCC3(C)C)c12 [compound 459, (E)-N-Cyclopropyl-3-(3-(3,3-dimethylmorpholino)-3-oxoprop-1-en-1-yl)-7-hydroxy-4-isobutyl-5-oxo-4,5-dihydropyrazolo[1,5-a]pyrimidine-6-carboxamide] | 0.74
CC(C)(C)Cn1c(=O)c(C(=O)NC2CC2)c(O)n2nc(Nc3cnc(C(=O)N4CCC(C#N)CC4)cn3)cc12 [Synthesis Example 359, 2-((5-(4-Cyanopiperidine-1-carbonyl)pyrazin-2-yl)amino)-N-cyclopropyl-7-hydroxy-4-neopentyl-5-oxo-4,5-dihydropyrazolo[1,5-a]pyrimidine-6-carboxamide] | 0.88
CC[C@H]1CCCN1C(=O)/C=C/c1cnn2c(O)c(C(=O)NC3CC3)c(=O)n(CC(C)C)c12 [compound 605, (S,E)-N-Cyclopropyl-3-(3-(2-ethylpyrrolidin-1-yl)-3-oxoprop-1-en-1-yl)-7-hydroxy-4-isobutyl-5-oxo-4,5-dihydropyrazolo[1,5-a]pyrimidine-6-carboxamide] | 1.2
Cc1nn2c(O)c(C(=O)NC3CC3)c(=O)n(CC(C)C)c2c1/C=C/C(=O)N1CCOC[C@H]1C [compound 570, (R,E)-N-Cyclopropyl-7-hydroxy-4-isobutyl-2-methyl-3-(3-(3-methylmorpholino)-3-oxoprop-1-en-1-yl)-5-oxo-4,5-dihydropyrazolo[1,5-a]pyrimidine-6-carboxamide] | 0.75
CC(C)Cn1c(=O)c(C(=O)NC2CC2)c(O)n2nc(N)c(/C=C/C(=O)N3CCOC[C@@H]3C)c12 [Synthesis Example 417, (S,E)-2-Amino-N-cyclopropyl-7-hydroxy-4-isobutyl-3-(3-(3-methylmorpholino)-3-oxoprop-1-en-1-yl)-5-oxo-4,5-dihydropyrazolo[1,5-a]pyrimidine-6-carboxamide hydrochloride] | 0.59
Cc1c(N)nn2c(O)c(C(=O)NC3CC3)c(=O)n(CC(C)(C)C)c12 [Synthesis Example 437, 2-Amino-N-cyclopropyl-7-hydroxy-3-methyl-4-neopentyl-5-oxo-4,5-dihydropyrazolo[1,5-a]pyrimidine-6-carboxamide hydrochloride] | 1.38
Cc1nn2c(O)c(C(=O)NC3CC3)c(=O)n(CC(C)C)c2c1/C=C/C(=O)N1CCC(F)(F)CC1 [compound 579, (E)-N-Cyclopropyl-3-(3-(4,4-difluoropiperidin-1-yl)-3-oxoprop-1-en-1-yl)-7-hydroxy-4-isobutyl-2-methyl-5-oxo-4,5-dihydropyrazolo[1,5-a]pyrimidine-6-carboxamide] | 0.87
C[C@@H]1COCCN1C(=O)/C=C/c1cnn2c(O)c(C(=O)NC3CC3)c(=O)n(CC3(C)CC3)c12 [Synthesis Example 370, (R,E)-N-Cyclopropyl-7-hydroxy-4-((1-methylcyclopropyl)methyl)-3-(3-(3-methylmorpholino)-3-oxoprop-1-en-1-yl)-5-oxo-4,5-dihydropyrazolo[1,5-a]pyrimidine-6-carboxamide] | 0.54
Cc1nn2c(O)c(C(=O)NC3CC3)c(=O)n(CC(C)(C)C)c2c1/C=C/C1CCOCC1 [compound 584, (E)-N-Cyclopropyl-7-hydroxy-2-methyl-4-neopentyl-5-oxo-3-(2-(tetrahydro-2H-pyran-4-yl)vinyl)-4,5-dihydropyrazolo[1,5-a]pyrimidine-6-carboxamide] | 1.2
CC(C)(C)Cn1c(=O)c(C(=O)NC2CC2)c(O)n2nc(-c3cnccn3)cc12 [Synthesis Example 302, N-Cyclopropyl-7-hydroxy-4-neopentyl-5-oxo-2-(pyrazin-2-yl)-4,5-dihydropyrazolo[1,5-a]pyrimidine-6-carboxamide] | 2.69
CNc1nn2c(O)c(C(=O)NC3CC3)c(=O)n(CC3(C)CCOCC3)c2c1/C=C/C1CCOCC1 [compound 585, (E)-N-Cyclopropyl-7-hydroxy-2-(methylamino)-4-((4-methyltetrahydro-2H-pyran-4-yl)methyl)-5-oxo-3-(2-(tetrahydro-2H-pyran-4-yl)vinyl)-4,5-dihydropyrazolo[1,5-a]pyrimidine-6-carboxamide] | 1.23
Cc1cncc(Nc2cc3n(CC(C)(C)C)c(=O)c(C(=O)NC4CC4)c(O)n3n2)n1 [Synthesis Example 330, N-Cyclopropyl-7-hydroxy-2-((6-methylpyrazin-2-yl)amino)-4-neopentyl-5-oxo-4,5-dihydropyrazolo[1,5-a]pyrimidine-6-carboxamide] | 1.83
Cc1nn2c(O)c(C(=O)NC3CC3)c(=O)n(CC(C)C)c2c1/C=C/C(=O)N1CCOC[C@H]1c1ccccc1 [Synthesis Example 642, (R,E)-N-Cyclopropyl-7-hydroxy-4-isobutyl-2-methyl-5-oxo-3-(3-oxo-3-(3-phenylmorpholino)prop-1-en-1-yl)-4,5-dihydropyrazolo[1,5-a]pyrimidine-6-carboxamide] | 0.94
CC(C)Cn1c(=O)c(C(=O)NC2CC2)c(O)n2ncc(COc3cccnc3)c12 [Synthesis Example 259, N-Cyclopropyl-7-hydroxy-4-isobutyl-5-oxo-3-((pyridin-3-yloxy)methyl)-4,5-dihydropyrazolo[1,5-a]pyrimidine-6-carboxamide] | 0.18
CC(C)Cn1c(=O)c(C(=O)NC2CC2)c(O)n2ncc(/C=C/C(=O)N(C)CC(F)(F)F)c12 [compound 509, (E)-N-Cyclopropyl-7-hydroxy-4-isobutyl-3-(3-(methyl(2,2,2-trifluoroethyl)amino)-3-oxoprop-1-en-1-yl)-5-oxo-4,5-dihydropyrazolo[1,5-a]pyrimidine-6-carboxamide] | 0.92

Same assay, conditions: sepiapterin absorbance, Table 41, read-out: concentration at 50% inhibition of human SPR (IC50)

SMILES | IC50 [nM]
CC(C)Cn1c(=O)c(C(=O)NC2CC2)c(O)n2ncc(/C=C/C(=O)N3C[C@@H](C)OC[C@H]3C)c12 [Synthesis Example 716, N-Cyclopropyl-3-((E)-3-((2R,5R)-2,5-dimethylmorpholino)-3-oxoprop-1-en-1-yl)-7-hydroxy-4-isobutyl-5-oxo-4,5-dihydropyrazolo[1,5-a]pyrimidine-6-carboxamide] | 0.88

— US20240092784A1, “CONDENSED HETEROCYCLIC COMPOUND” (NISSAN CHEMICAL CORPORATION, priority 2020, published 2024)
